Assay results as given in patent US20250263457A1, “Pharmaceutical Composition for Preventing and Treating Liver Disease Comprising Novel Peptide” (Pusan National University Industry-University Cooperation …, priority 2024, published 2025).

Legend:
[1] = test system: alcohol-related liver disease mouse model; assay: Liver size/weight and serum AST/ALT in alcohol-related liver disease mouse model; type: in vivo, C57BL/6 male mice
Method: (§1) To prepare alcohol-related liver disease mice, 8-week-old C57BL/6 male mice were fed with a Lieber DeCarli liquid diet (Dyets, 710260) containing 5% EtOH for 9 weeks, and then injected intraperitoneally with a vehicle (PBS) every other day along with feeding liquid diet for additional 3 weeks. As a control group for the EtOH diet, mice fed with a pair Lieber DeCarli liquid diet (Dyets, 710027) having the same total calories as the EtOH diet were used (FIG. 4A).
Specifically, 20 μl of mouse serum was mixed with 100 μl of a GOT buffer or GPT buffer, and then reacted at 37° C. Thereafter, the mixture was added with a 0.0198% 2,4-dinitrophenylhydrazine colorimetric solution (100 μl), and then further reacted at room temperature for 20 minutes. Thereafter, the mixture was added with 0.4 N NaOH (1 ml) to terminate the reaction, and absorbance (505 nm) was measured. The absorbance was expressed in international units per liter (IU/L).
(§2) The alcohol-related liver disease mouse model established by the method of Example 5.1 was administered vehicle (PBS) or peptide YJ (3.3 μg/kg) intraperitoneally every other day for three weeks, and then blood was collected and liver tissue was extracted to confirm the liver disease treatment effect of peptide YJ.
The weight and degree of tissue damage of the liver tissue extracted from the experimental mice of Example 5.3 were measured in the same manner as in Example 5.2.1.

[2] = test system: alcohol-related liver disease mouse model; assay: Fibrosis markers and collagen accumulation in liver tissue of mouse model; type: in vivo, C57BL/6 male mice; conditions: 3.3 μg/kg i.p. every other day for three weeks, EtOH diet group, vs vehicle
Excerpt: as §1
In most chronic liver diseases, severe inflammatory responses were accompanied by fibrosis. Accordingly, the degree of fibrosis in the liver tissue of the alcohol-related liver disease mouse model established by the method of Example 5.1 in the present disclosure was confirmed through the expression of fibrosis markers using RT-qPCR and Western blot. In addition, the accumulation of collagen in the liver tissue and the expression of α-SMA were confirmed. In addition, the concentration of collagen in the liver tissue was confirmed through Sirius red staining, and the expression of α-SMA was confirmed through immunohistochemical staining. At this time, RT-qPCR and Western blot were performed in the same manner as in Example 2, and immunohistochemical staining (IHC) was performed in the same manner as in Example 5.2.3. In IHC, an anti-α-SMA antibody was used as the primary antibody.
After deparaffinization and hydration of the liver tissue section slides prepared in the same manner as in Example 5.2.3, the section slides were treated with 0.1% Sirius red F3B (Sigma-Aldrich) and 0.1% Fast Green (Sigma-Aldrich) solutions containing saturated picric acid (Sigma-Aldrich) and reacted for 20 minutes. After the staining reaction was completed, the section slides were dehydrated, mounted, and observed under a microscope. […] In addition, it was confirmed that the expression of α-SMA in the liver tissue in the EtOH diet group increased compared to the control group (pair) (FIG. 5D).
as §2
The degree of fibrosis in the liver tissue extracted from the experimental mice of Example 5.3 was confirmed in the same manner as in Example 5.2.4.

[3] = test system: human pHSCs; assay: Western blot of HSC activation/inactivation markers in human pHSCs; type: cell-based; conditions: 40 ng/ml, vs control (FIG. 2C)
Method: To confirm the expression of cell activation markers, human pHSCs (5× 10^5 cells/ml) were treated with peptide YJ at a concentration of 20 or 40 ng/ml, and then proteins were extracted and subjected to Western blotting. At this time, as primary antibodies, anti-α-SMA antibody (Sigma-Aldrich, A5228), anti-GAPDH antibody (Bio-rad, MCA4739), anti-GFAP antibody (Dako, z0334), and anti-TFG-β antibody (Cell Signaling Technology, 3711) were used. In addition, as secondary antibodies, Goat anti-mouse IgG F(ab′) 2 antibody (HRP conjugate) (Enzo, ADI-SAB-100-J) and Goat anti-rabbit IgG antibody (HRP conjugate) (Enzo, ADI-SAB-300-J) were used.

[4] = test system: human pHSCs; assay: RT-qPCR and Western blot of fibrosis/activation markers in human pHSCs; type: cell-based; conditions: 40 ng/ml, 24 and 48 hours, vs control (FIGS. 3C, 3D)
Method: In addition, after pHSCs were treated with peptide YJ for 24 and 48 hours by the same method as above, respectively, RNA and protein were extracted (whole lysate) and the expression of pHSCs activation markers was confirmed through RT-qPCR (FIG. 3C) and Western blot (FIG. 3D). Western blot was performed using the same method as in Example 2, and RNA extraction and RT-qPCR were performed as follows. At this time, human pHSCs treated with PBS were used as a control group.
First, total RNA was extracted from each cell using a Trizol solution (Invitrogen, 15596-026), and then the concentration and purity of RNA were confirmed using a nanodrop. Thereafter, complementary DNA (cDNA) was synthesized using the RNA as a template using the SuperScript First-strand Synthesis System (Invitrogen, 18064014). The cDNA synthesized by the method was used as sample DNA in quantitative real-time PCR (qPCR).
The quantitative real-time PCR (qPCR) was performed using Power SYBR Green Master Mix (Applied Biosystem), and the results were analyzed by a […] method. The qPCR results were analyzed for significance using Mean±SEM values of three independent experiments through one-way ANOVA followed by post hoc Tukey's test.

[5] = test system: human pHSCs; assay: Cell survival of human pHSCs by MTS assay; type: cell-based; conditions: 0, 20, 40, or 100 ng/ml; 24 and 48 hours; vs PBS control (FIG. 2B)
Method: 100 μl of human pHSCs (5×10^4 cells/ml) were seeded into 96 wells and cultured overnight. The cells were treated with peptide YJ at a concentration of 0, 20, 40, or 100 ng/ml and then further cultured. After 24 and 48 hours, cell survival for each cell was confirmed through MTS assay (Cell titer proliferation assay, G3580, Promega) (FIG. 2A). At this time, human pHSCs treated with PBS were used as a control group (vehicle).

[6] = 3.3 μg/kg i.p. every other day for three weeks, EtOH diet group, vs vehicle (FIG. 6C)
[7] = RT-qPCR, Western blot (FIGS. 7A, 7B)

In the case of “peptide YJ: TSG-6 fragment: core domain RSGKYKLTYAEAKA plus C-terminal extension VCEFEGGHLATYKQLEAARKIGFHVCAAGWMAK (SEQ ID NO: 9); TSG-6 mimetic (RSGKYKLTYAEAKAVCEFEGGHLATYKQLEAARKIGFHVCAAGWMAK; peptide 4)”, the “serum ALT level” value [1, 6] is reported as “decreased”, the “serum AST level” value [1, 6] is reported as “decreased” and the “size and weight of the liver tissue” value ([1]; 3.3 μg/kg intraperitoneally every other day for three weeks, between groups (FIGS. 6A, 6B)) is reported as “did not show statistically significant differences”. The “mRNA and protein expression of collagen1α1 in the liver tissue” value [2, 7] was “significantly reduced”, the “mRNA and protein expression of vimentin in the liver tissue” value [2, 7] was “significantly reduced” and the “mRNA and protein expression of α-SMA in the liver tissue” value [2, 7] was “significantly reduced”. For the same substance, the “collagen accumulation in the liver tissue” value ([2]; hydroxyproline assay, Sirius red staining, IHC (α-SMA) (FIGS. 7C, 7D)) was “significantly reduced”, the “expression of GFAP (inactivation marker)” value [3] was “increased” and the “expression of activation markers of pHSCs” value [3] was “decreased”. The “expression of COL1α1” value ([4]; RT-qPCR and Western blot) was “decreased”, the “expression of CTGF” value ([4]; RT-qPCR and Western blot) was “decreased” and the “expression of TGF-β” value ([4]; RT-qPCR and Western blot) was “decreased”. The “expression of TIMP1” value ([4]; RT-qPCR and Western blot) was “decreased”, the “expression of α-SMA” value ([4]; RT-qPCR and Western blot) was “decreased” and the “expression of GFAP (inactivation marker of pHSCs)” value [4] was “increased”. The “cell survival and proliferation” value [5] was “no changes in cell survival and proliferation were observed”.
